Laboratory results from US11932604B1, “9-(2-hydroxyphenyl)-10-[3-(dimethylamino)propyl]- 3,4,6,7,9,10-hexahydroacridine-1,8(2H,5H)-dione as an antimicrobial compound” (KING FAISAL UNIVERSITY, priority 2023, dated 2024).

Key:
Conditions in all cases: after 10, 20, 40 and 60 minutes at all dilutions 1:100 to 1:800
[1] = tested on: Candida albicans; test: Antimicrobial activity by agar dilution, Candida albicans; format: cell-based
Procedure: (§1) The antimicrobial properties of the synthesized compound 9-(2-hydroxyphenyl)-10-[3-(dimethylamino)propyl]-3,4,6,7,9,10-hexahydroacridine-1,8(2H,5H)-dione were studied by the method of agar dilution. Test solutions of each compound were prepared in a concentration of 1% using dimethylformamide as a solvent. Then they were diluted in a physiological solution to obtain the final experimental dilutions 1:100, 1:200, 1:400, and 1:800. The effect of these substances were compared with furacillin in a controllable study. The testing microbes used were gram positive bacteria St. Aereus, gram negative bacteria E. Coli and Ps. Aeruginosa, and Candida albicans fungi. The experiments used for this survey were meat-pentonlu agar (EPA) for cultivation of bacteria and Saburo environment for fungi. Each experiment used 1 ml of test solution on each plate 500 min. Add 2 drops of emulsified with microbes feel. All experimental samples were taken from the agar after 10, 20, 40, 60 minutes in the environment on the basis of Patrk planted. Bacteria were cultivated at a temperature of 37° C. for 1 day and the mushroom was kept in a thermostat for […] at a temperature of 28° C. Then the results were checked.

[2] = tested on: Ps. Aeruginosa; test: Antimicrobial activity by agar dilution, Ps. Aeruginosa; format: cell-based, Pseudomonas aeruginosa
Procedure: as §1

[3] = tested on: E. Coli; test: Antimicrobial activity by agar dilution, E. Coli; format: cell-based, Escherichia coli
Procedure: as §1

[4] = tested on: St. Aereus; test: Antimicrobial activity by agar dilution, St. Aereus; format: cell-based, Staphylococcus aureus
Procedure: as §1

CN(C)CCCN1C2=C(C(=O)CCC2)C(c2ccccc2O)C2=C1CCCC2=O [9-(2-hydroxyphenyl)-10-[3-(dimethylamino)propyl]-3,4,6,7,9,10-hexahydroacridine-1,8(2H,5H)-dione]
highest inhibition activity: inhibition activity, Candida albicans [1] | inhibition activity, Ps. Aeruginosa [2] | inhibition activity, E. Coli [3] | inhibition activity, St. Aereus [4]
